Assay results from PubChem BioAssay (NCI).
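Each compound was tested at five concentrations against cells in 96-well plates for 48 hours. The concentration for 50% growth inhibition is given as GI50. At the TGI there is no net growth.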

How the values were obtained:
Assay in all cases: growth of human tumour cells (NCI), 48 h
786-0 renal = test system: 786-0 renal
A498 renal = test system: A498 renal
A549 NSCLC = test system: A549 NSCLC
ACHN renal = test system: ACHN renal
BT-549 breast = test system: BT-549 breast
CAKI-1 renal = test system: CAKI-1 renal
CCRF-CEM leukemia = test system: CCRF-CEM leukemia
COLO 205 colon = test system: COLO 205 colon
DU-145 prostate = test system: DU-145 prostate
EKVX NSCLC = test system: EKVX NSCLC
HCC-2998 colon = test system: HCC-2998 colon
HCT-116 colon = test system: HCT-116 colon
HCT-15 colon = test system: HCT-15 colon
HL-60(TB) leukemia = test system: HL-60(TB) leukemia
HOP-62 NSCLC = test system: HOP-62 NSCLC
HOP-92 NSCLC = test system: HOP-92 NSCLC
HS 578T breast = test system: HS 578T breast
HT29 colon = test system: HT29 colon
IGROV1 ovarian = test system: IGROV1 ovarian
K-562 leukemia = test system: K-562 leukemia
KM12 colon = test system: KM12 colon
LOX IMVI melanoma = test system: LOX IMVI melanoma
M14 melanoma = test system: M14 melanoma
MALME-3M melanoma = test system: MALME-3M melanoma
MCF7 breast = test system: MCF7 breast
MDA-MB-231 breast = test system: MDA-MB-231 breast
MDA-MB-435 = test system: MDA-MB-435
MOLT-4 leukemia = test system: MOLT-4 leukemia
NCI-H226 lung = test system: NCI-H226 lung
NCI-H23 lung = test system: NCI-H23 lung
NCI-H460 lung = test system: NCI-H460 lung
NCI-H522 lung = test system: NCI-H522 lung
NCI/ADR-RES ovarian = test system: NCI/ADR-RES ovarian
OVCAR-3 ovarian = test system: OVCAR-3 ovarian
OVCAR-4 ovarian = test system: OVCAR-4 ovarian
OVCAR-5 ovarian = test system: OVCAR-5 ovarian
OVCAR-8 ovarian = test system: OVCAR-8 ovarian
PC-3 prostate = test system: PC-3 prostate
RPMI-8226 leukemia = test system: RPMI-8226 leukemia
RXF 393 renal = test system: RXF 393 renal
SF-268 CNS = test system: SF-268 CNS
SF-295 CNS = test system: SF-295 CNS
SF-539 CNS = test system: SF-539 CNS
SK-MEL-2 melanoma = test system: SK-MEL-2 melanoma
SK-MEL-28 melanoma = test system: SK-MEL-28 melanoma
SK-MEL-5 melanoma = test system: SK-MEL-5 melanoma
SK-OV-3 ovarian = test system: SK-OV-3 ovarian
SN12C renal = test system: SN12C renal
SW-620 colon = test system: SW-620 colon
T-47D breast = test system: T-47D breast
TK-10 renal = test system: TK-10 renal
U251 CNS = test system: U251 CNS
UACC-257 melanoma = test system: UACC-257 melanoma
UACC-62 melanoma = test system: UACC-62 melanoma
UO-31 renal = test system: UO-31 renal
SNB-19 CNS = test system: SNB-19 CNS
SR leukemia = test system: SR leukemia

Cc1ccc(C(=O)CN(/C=C/C(=O)C(F)(F)F)c2ccc(S(N)(=O)=O)cc2)cc1
GI50 (786-0 renal): > 100 µM | TGI (786-0 renal): > 100 µM | GI50 (A498 renal): > 100 µM | TGI (A498 renal): > 100 µM | GI50 (A549 NSCLC): 63.5 µM | TGI (A549 NSCLC): > 100 µM | GI50 (ACHN renal): > 100 µM | TGI (ACHN renal): > 100 µM | GI50 (BT-549 breast): 58.9 µM | TGI (BT-549 breast): > 100 µM | GI50 (CAKI-1 renal): 93 µM | TGI (CAKI-1 renal): > 100 µM | GI50 (CCRF-CEM leukemia): 30.3 µM | TGI (CCRF-CEM leukemia): > 100 µM | GI50 (COLO 205 colon): > 100 µM | TGI (COLO 205 colon): > 100 µM | GI50 (DU-145 prostate): > 100 µM | TGI (DU-145 prostate): > 100 µM | GI50 (EKVX NSCLC): 55.2 µM | TGI (EKVX NSCLC): > 100 µM | GI50 (HCC-2998 colon): > 100 µM | TGI (HCC-2998 colon): > 100 µM | GI50 (HCT-116 colon): 41.9 µM | TGI (HCT-116 colon): > 100 µM | GI50 (HCT-15 colon): 86 µM | TGI (HCT-15 colon): > 100 µM | GI50 (HL-60(TB) leukemia): 41.1 µM | TGI (HL-60(TB) leukemia): > 100 µM | GI50 (HOP-62 NSCLC): > 100 µM | TGI (HOP-62 NSCLC): > 100 µM | GI50 (HOP-92 NSCLC): 99.7 µM | TGI (HOP-92 NSCLC): > 100 µM | GI50 (HS 578T breast): 55.3 µM | TGI (HS 578T breast): > 100 µM | GI50 (HT29 colon): > 100 µM | TGI (HT29 colon): > 100 µM | GI50 (IGROV1 ovarian): > 100 µM | TGI (IGROV1 ovarian): > 100 µM | GI50 (K-562 leukemia): 39.3 µM | TGI (K-562 leukemia): > 100 µM | GI50 (KM12 colon): 31.4 µM | TGI (KM12 colon): > 100 µM | GI50 (LOX IMVI melanoma): 76 µM | TGI (LOX IMVI melanoma): > 100 µM | GI50 (M14 melanoma): > 100 µM | TGI (M14 melanoma): > 100 µM | GI50 (MALME-3M melanoma): > 100 µM | TGI (MALME-3M melanoma): > 100 µM | GI50 (MCF7 breast): 59.8 µM | TGI (MCF7 breast): > 100 µM | GI50 (MDA-MB-231 breast): > 100 µM | TGI (MDA-MB-231 breast): > 100 µM | GI50 (MDA-MB-435): > 100 µM | TGI (MDA-MB-435): > 100 µM | GI50 (MOLT-4 leukemia): 44 µM | TGI (MOLT-4 leukemia): > 100 µM | GI50 (NCI-H226 lung): > 100 µM | TGI (NCI-H226 lung): > 100 µM | GI50 (NCI-H23 lung): 37.2 µM | TGI (NCI-H23 lung): > 100 µM | GI50 (NCI-H460 lung): > 100 µM | TGI (NCI-H460 lung): > 100 µM | GI50 (NCI-H522 lung): 53.8 µM | TGI (NCI-H522 lung): > 100 µM | GI50 (NCI/ADR-RES ovarian): 62.9 µM | TGI (NCI/ADR-RES ovarian): > 100 µM | GI50 (OVCAR-3 ovarian): 42.6 µM | TGI (OVCAR-3 ovarian): > 100 µM | GI50 (OVCAR-4 ovarian): > 100 µM | TGI (OVCAR-4 ovarian): > 100 µM | GI50 (OVCAR-5 ovarian): > 100 µM | TGI (OVCAR-5 ovarian): > 100 µM | GI50 (OVCAR-8 ovarian): 61.2 µM | TGI (OVCAR-8 ovarian): > 100 µM | GI50 (PC-3 prostate): 59.8 µM | TGI (PC-3 prostate): > 100 µM | GI50 (RPMI-8226 leukemia): 29.7 µM | TGI (RPMI-8226 leukemia): > 100 µM | GI50 (RXF 393 renal): > 100 µM | TGI (RXF 393 renal): > 100 µM | GI50 (SF-268 CNS): > 100 µM | TGI (SF-268 CNS): > 100 µM | GI50 (SF-295 CNS): 43.8 µM | TGI (SF-295 CNS): > 100 µM | GI50 (SF-539 CNS): > 100 µM | TGI (SF-539 CNS): > 100 µM | GI50 (SK-MEL-2 melanoma): > 100 µM | TGI (SK-MEL-2 melanoma): > 100 µM | GI50 (SK-MEL-28 melanoma): > 100 µM | TGI (SK-MEL-28 melanoma): > 100 µM | GI50 (SK-MEL-5 melanoma): 49.8 µM | TGI (SK-MEL-5 melanoma): > 100 µM | GI50 (SK-OV-3 ovarian): > 100 µM | TGI (SK-OV-3 ovarian): > 100 µM | GI50 (SN12C renal): > 100 µM | TGI (SN12C renal): > 100 µM | GI50 (SW-620 colon): > 100 µM | TGI (SW-620 colon): > 100 µM | GI50 (T-47D breast): 70.1 µM | TGI (T-47D breast): > 100 µM | GI50 (TK-10 renal): 44.5 µM | TGI (TK-10 renal): > 100 µM | GI50 (U251 CNS): 48.4 µM | TGI (U251 CNS): > 100 µM | GI50 (UACC-257 melanoma): > 100 µM | TGI (UACC-257 melanoma): > 100 µM | GI50 (UACC-62 melanoma): > 100 µM | TGI (UACC-62 melanoma): > 100 µM | GI50 (UO-31 renal): > 100 µM | TGI (UO-31 renal): > 100 µM

O=S(=O)(N=S(c1ccccc1)c1ccccc1)c1ccccc1
TGI (786-0 renal): > 100 µM | TGI (A498 renal): > 100 µM | TGI (A549 NSCLC): > 100 µM | TGI (ACHN renal): > 100 µM | TGI (BT-549 breast): > 100 µM | TGI (CCRF-CEM leukemia): > 100 µM | TGI (COLO 205 colon): > 100 µM | TGI (DU-145 prostate): > 100 µM | TGI (EKVX NSCLC): > 100 µM | TGI (HCT-116 colon): > 100 µM | TGI (HCT-15 colon): > 100 µM | TGI (HL-60(TB) leukemia): > 100 µM | TGI (HOP-62 NSCLC): > 100 µM | TGI (HOP-92 NSCLC): > 100 µM | TGI (HT29 colon): > 100 µM | TGI (K-562 leukemia): > 100 µM | TGI (KM12 colon): > 100 µM | TGI (M14 melanoma): > 100 µM | TGI (MALME-3M melanoma): > 100 µM | TGI (MCF7 breast): > 100 µM | TGI (MDA-MB-435): > 100 µM | TGI (MOLT-4 leukemia): > 100 µM | TGI (NCI-H226 lung): > 100 µM | TGI (NCI-H23 lung): > 100 µM | TGI (NCI-H460 lung): > 100 µM | TGI (NCI/ADR-RES ovarian): > 100 µM | TGI (OVCAR-3 ovarian): > 100 µM | TGI (OVCAR-5 ovarian): > 100 µM | TGI (OVCAR-8 ovarian): > 100 µM | TGI (PC-3 prostate): > 100 µM | TGI (RPMI-8226 leukemia): > 100 µM | TGI (RXF 393 renal): > 100 µM | TGI (SF-268 CNS): > 100 µM | TGI (SF-295 CNS): > 100 µM | TGI (SF-539 CNS): > 100 µM | TGI (SK-MEL-28 melanoma): > 100 µM | TGI (SN12C renal): > 100 µM | TGI (SNB-19 CNS): > 100 µM | TGI (SR leukemia): > 100 µM | TGI (SW-620 colon): > 100 µM | TGI (T-47D breast): > 100 µM | TGI (TK-10 renal): > 100 µM | TGI (U251 CNS): > 100 µM | TGI (UACC-257 melanoma): > 100 µM | TGI (UO-31 renal): > 100 µM

CCCOC(C)OCCC#CCC(C)OC(=O)CC(Cl)(Cl)Cl (stereo not given)
GI50 (CCRF-CEM leukemia): 22.6 µg/mL | GI50 (EKVX NSCLC): 98.4 µg/mL | GI50 (HCT-116 colon): 50.8 µg/mL | GI50 (HL-60(TB) leukemia): 46.5 µg/mL | GI50 (HS 578T breast): 56.8 µg/mL
